# According to PubChem BioAssay (NCI):
#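 Cells were grown in 96-well plates and exposed to each compound for 48 hours at five concentrations; endpoints were interpolated linearly between bracketing concentrations, or set to the highest concentration if not reached. TGI denotes the concentration required for complete inhibition of growth.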 Where a SMILES comes first, the peptide text is derived from it. [ ]: non-standard residue; d: D form. ξ: configuration not given here. ξLac(3-iPr) = CC(C)CC(O)C(=O)O; NMeV = CN[CH](C(=O)O)C(C)C; NMeA = CN[CH](C)C(=O)O; βAla = NCCC(=O)O
# Assays:
# Test in all cases: NCI-60 cell line screen, 48 h
# 786-0 renal = tested on: 786-0 renal
# A498 renal = tested on: A498 renal
# A549 NSCLC = tested on: A549 NSCLC
# ACHN renal = tested on: ACHN renal
# BT-549 breast = tested on: BT-549 breast
# CAKI-1 renal = tested on: CAKI-1 renal
# CCRF-CEM leukemia = tested on: CCRF-CEM leukemia
# COLO 205 colon = tested on: COLO 205 colon
# DU-145 prostate = tested on: DU-145 prostate
# EKVX NSCLC = tested on: EKVX NSCLC
# HCC-2998 colon = tested on: HCC-2998 colon
# HCT-116 colon = tested on: HCT-116 colon
# HCT-15 colon = tested on: HCT-15 colon
# HL-60(TB) leukemia = tested on: HL-60(TB) leukemia
# HOP-62 NSCLC = tested on: HOP-62 NSCLC
# HOP-92 NSCLC = tested on: HOP-92 NSCLC
# HS 578T breast = tested on: HS 578T breast
# HT29 colon = tested on: HT29 colon
# IGROV1 ovarian = tested on: IGROV1 ovarian
# K-562 leukemia = tested on: K-562 leukemia
# KM12 colon = tested on: KM12 colon
# M14 melanoma = tested on: M14 melanoma
# MALME-3M melanoma = tested on: MALME-3M melanoma
# MCF7 breast = tested on: MCF7 breast
# MDA-MB-231 breast = tested on: MDA-MB-231 breast
# MDA-MB-435 = tested on: MDA-MB-435
# MDA-N = tested on: MDA-N
# MOLT-4 leukemia = tested on: MOLT-4 leukemia
# NCI-H226 lung = tested on: NCI-H226 lung
# NCI-H23 lung = tested on: NCI-H23 lung
# NCI-H460 lung = tested on: NCI-H460 lung
# NCI-H522 lung = tested on: NCI-H522 lung
# NCI/ADR-RES ovarian = tested on: NCI/ADR-RES ovarian
# OVCAR-3 ovarian = tested on: OVCAR-3 ovarian
# OVCAR-4 ovarian = tested on: OVCAR-4 ovarian
# OVCAR-5 ovarian = tested on: OVCAR-5 ovarian
# OVCAR-8 ovarian = tested on: OVCAR-8 ovarian
# PC-3 prostate = tested on: PC-3 prostate
# RPMI-8226 leukemia = tested on: RPMI-8226 leukemia
# RXF 393 renal = tested on: RXF 393 renal
# SF-268 CNS = tested on: SF-268 CNS
# SF-295 CNS = tested on: SF-295 CNS
# SF-539 CNS = tested on: SF-539 CNS
# SK-MEL-2 melanoma = tested on: SK-MEL-2 melanoma
# SK-MEL-28 melanoma = tested on: SK-MEL-28 melanoma
# SK-MEL-5 melanoma = tested on: SK-MEL-5 melanoma
# SK-OV-3 ovarian = tested on: SK-OV-3 ovarian
# SN12C renal = tested on: SN12C renal
# SNB-19 CNS = tested on: SNB-19 CNS
# SNB-75 CNS = tested on: SNB-75 CNS
# SR leukemia = tested on: SR leukemia
# SW-620 colon = tested on: SW-620 colon
# T-47D breast = tested on: T-47D breast
# TK-10 renal = tested on: TK-10 renal
# U251 CNS = tested on: U251 CNS
# UACC-257 melanoma = tested on: UACC-257 melanoma
# UACC-62 melanoma = tested on: UACC-62 melanoma
# UO-31 renal = tested on: UO-31 renal
# LOX IMVI melanoma = tested on: LOX IMVI melanoma
smiles,measurement,setting,value
CCC(C)C1NC(=O)C2CCCN2C(=O)C(CC(C)C)OC(=O)CCNC(=O)C(C)N(C)C(=O)C(C(C)C)N(C)C1=O (configuration not stated) (cyclo([ξLac(3-iPr)]PI[NMeV][NMeA][βAla]); configuration not given here),TGI,786-0 renal,17.6 µM
same,TGI,A498 renal,81.8 µM
same,TGI,A549 NSCLC,> 100 µM
same,TGI,ACHN renal,> 83.4 µM
same,TGI,BT-549 breast,> 100 µM
same,TGI,CAKI-1 renal,> 86.2 µM
same,TGI,CCRF-CEM leukemia,> 17.9 µM
same,TGI,COLO 205 colon,17.2 µM
same,TGI,DU-145 prostate,> 89.2 µM
same,TGI,EKVX NSCLC,> 100 µM
same,TGI,HCC-2998 colon,14.9 µM
same,TGI,HCT-116 colon,19.6 µM
same,TGI,HCT-15 colon,> 100 µM
same,TGI,HL-60(TB) leukemia,18.2 µM
same,TGI,HOP-62 NSCLC,17.7 µM
same,TGI,HOP-92 NSCLC,> 100 µM
same,TGI,HS 578T breast,> 96.3 µM
same,TGI,HT29 colon,43.7 µM
same,TGI,IGROV1 ovarian,> 100 µM
same,TGI,K-562 leukemia,> 100 µM
same,TGI,KM12 colon,45.5 µM
same,TGI,M14 melanoma,6.49 µM
same,TGI,MALME-3M melanoma,45.2 µM
same,TGI,MCF7 breast,> 26.7 µM
same,TGI,MDA-MB-231 breast,> 100 µM
same,TGI,MDA-MB-435,13.5 µM
same,TGI,MDA-N,17.3 µM
same,TGI,MOLT-4 leukemia,21 µM
same,TGI,NCI-H226 lung,> 45.9 µM
same,TGI,NCI-H23 lung,> 71.6 µM
same,TGI,NCI-H460 lung,> 100 µM
same,TGI,NCI-H522 lung,60.2 µM
same,TGI,NCI/ADR-RES ovarian,> 86.9 µM
same,TGI,OVCAR-3 ovarian,> 100 µM
same,TGI,OVCAR-4 ovarian,> 100 µM
same,TGI,OVCAR-5 ovarian,> 100 µM
same,TGI,OVCAR-8 ovarian,29.2 µM
same,TGI,PC-3 prostate,> 100 µM
same,TGI,RPMI-8226 leukemia,8.15 µM
same,TGI,RXF 393 renal,98 µM
same,TGI,SF-268 CNS,80.9 µM
same,TGI,SF-295 CNS,8.05 µM
same,TGI,SF-539 CNS,> 80.3 µM
same,TGI,SK-MEL-2 melanoma,8.81 µM
same,TGI,SK-MEL-28 melanoma,> 100 µM
same,TGI,SK-MEL-5 melanoma,3.27 µM
same,TGI,SK-OV-3 ovarian,> 86.8 µM
same,TGI,SN12C renal,> 100 µM
same,TGI,SNB-19 CNS,> 100 µM
same,TGI,SNB-75 CNS,> 86.8 µM
same,TGI,SR leukemia,> 56.5 µM
same,TGI,SW-620 colon,> 100 µM
same,TGI,T-47D breast,38.9 µM
same,TGI,TK-10 renal,> 100 µM
same,TGI,U251 CNS,> 100 µM
same,TGI,UACC-257 melanoma,41.8 µM
same,TGI,UACC-62 melanoma,5.06 µM
same,TGI,UO-31 renal,> 42 µM
CSC(=S)OC1CC(n2cnc3c(NC(=O)c4ccccc4)ncnc32)OC1CO[Si](C)(C)C(C)(C)C (configuration not stated),TGI,786-0 renal,> 56.2 µM
same,TGI,A498 renal,> 31.6 µM
same,TGI,A549 NSCLC,> 100 µM
same,TGI,ACHN renal,> 56.2 µM
same,TGI,BT-549 breast,> 100 µM
same,TGI,CAKI-1 renal,> 46.4 µM
same,TGI,CCRF-CEM leukemia,> 51.7 µM
same,TGI,COLO 205 colon,18.1 µM
same,TGI,DU-145 prostate,42.6 µM
same,TGI,EKVX NSCLC,> 56.2 µM
same,TGI,HCC-2998 colon,> 31.6 µM
same,TGI,HCT-116 colon,> 100 µM
same,TGI,HCT-15 colon,> 56.2 µM
same,TGI,HL-60(TB) leukemia,32.6 µM
same,TGI,HOP-62 NSCLC,46 µM
same,TGI,HOP-92 NSCLC,44.4 µM
same,TGI,HS 578T breast,> 56.2 µM
same,TGI,HT29 colon,> 56.2 µM
same,TGI,IGROV1 ovarian,44.2 µM
same,TGI,K-562 leukemia,> 49.5 µM
same,TGI,KM12 colon,41.6 µM
same,TGI,LOX IMVI melanoma,47.2 µM
same,TGI,M14 melanoma,> 56.2 µM
same,TGI,MALME-3M melanoma,51.9 µM
same,TGI,MCF7 breast,40.3 µM
same,TGI,MDA-MB-231 breast,> 46.4 µM
same,TGI,MDA-MB-435,27.9 µM
same,TGI,MDA-N,47.4 µM
same,TGI,MOLT-4 leukemia,14.8 µM
same,TGI,NCI-H226 lung,> 56.2 µM
same,TGI,NCI-H23 lung,> 56.2 µM
same,TGI,NCI-H460 lung,> 56.2 µM
same,TGI,NCI-H522 lung,> 56.2 µM
same,TGI,NCI/ADR-RES ovarian,> 56.2 µM
same,TGI,OVCAR-3 ovarian,34.4 µM
same,TGI,OVCAR-4 ovarian,> 56.2 µM
same,TGI,OVCAR-5 ovarian,> 56.2 µM
same,TGI,OVCAR-8 ovarian,> 56.2 µM
same,TGI,PC-3 prostate,> 46.4 µM
same,TGI,RPMI-8226 leukemia,43 µM
same,TGI,RXF 393 renal,> 65.8 µM
same,TGI,SF-268 CNS,> 56.2 µM
same,TGI,SF-295 CNS,> 56.2 µM
same,TGI,SF-539 CNS,> 46.4 µM
same,TGI,SK-MEL-2 melanoma,53.4 µM
same,TGI,SK-MEL-28 melanoma,> 46.4 µM
same,TGI,SK-MEL-5 melanoma,18.3 µM
same,TGI,SK-OV-3 ovarian,> 46.4 µM
same,TGI,SN12C renal,52.2 µM
same,TGI,SNB-19 CNS,> 56.2 µM
same,TGI,SNB-75 CNS,52 µM
same,TGI,SR leukemia,> 50 µM
same,TGI,SW-620 colon,> 56.2 µM
same,TGI,T-47D breast,> 56.2 µM
same,TGI,TK-10 renal,> 56.2 µM
same,TGI,U251 CNS,44.4 µM
same,TGI,UACC-257 melanoma,> 56.2 µM
same,TGI,UACC-62 melanoma,> 56.2 µM
same,TGI,UO-31 renal,28 µM
CSc1nc2c(c(N3CCOCC3)n1)C(O)n1c(nc3ccccc31)S2 (configuration not stated),TGI,786-0 renal,> 100 µM
same,TGI,A498 renal,> 100 µM
same,TGI,A549 NSCLC,> 100 µM
same,TGI,ACHN renal,> 100 µM
same,TGI,BT-549 breast,> 100 µM
same,TGI,CAKI-1 renal,> 100 µM
same,TGI,CCRF-CEM leukemia,> 100 µM
same,TGI,DU-145 prostate,> 100 µM
same,TGI,EKVX NSCLC,> 100 µM
same,TGI,HCC-2998 colon,> 100 µM
same,TGI,HCT-116 colon,> 100 µM
same,TGI,HCT-15 colon,> 100 µM
same,TGI,HL-60(TB) leukemia,> 100 µM
same,TGI,HOP-62 NSCLC,> 100 µM
same,TGI,HOP-92 NSCLC,> 100 µM
same,TGI,HS 578T breast,92.7 µM
same,TGI,HT29 colon,> 100 µM
same,TGI,IGROV1 ovarian,> 100 µM
same,TGI,KM12 colon,> 100 µM
same,TGI,LOX IMVI melanoma,> 100 µM
same,TGI,M14 melanoma,> 100 µM
same,TGI,MALME-3M melanoma,> 100 µM
same,TGI,MCF7 breast,> 100 µM
same,TGI,MDA-MB-231 breast,> 100 µM
same,TGI,MDA-MB-435,> 100 µM
same,TGI,MDA-N,> 100 µM
same,TGI,MOLT-4 leukemia,> 100 µM
same,TGI,NCI-H23 lung,> 100 µM
same,TGI,NCI-H460 lung,> 100 µM
same,TGI,NCI-H522 lung,> 100 µM
same,TGI,NCI/ADR-RES ovarian,> 100 µM
same,TGI,OVCAR-3 ovarian,> 100 µM
same,TGI,OVCAR-4 ovarian,> 100 µM
same,TGI,OVCAR-5 ovarian,> 100 µM
same,TGI,OVCAR-8 ovarian,> 100 µM
same,TGI,PC-3 prostate,> 100 µM
same,TGI,RPMI-8226 leukemia,> 100 µM
same,TGI,RXF 393 renal,> 100 µM
same,TGI,SF-268 CNS,> 100 µM
same,TGI,SF-295 CNS,> 100 µM
same,TGI,SF-539 CNS,8.77 µM
same,TGI,SK-MEL-2 melanoma,> 100 µM
same,TGI,SK-MEL-5 melanoma,8.41 µM
same,TGI,SK-OV-3 ovarian,> 100 µM
same,TGI,SN12C renal,> 100 µM
same,TGI,SNB-19 CNS,> 100 µM
same,TGI,SNB-75 CNS,81.9 µM
same,TGI,SR leukemia,> 100 µM
same,TGI,SW-620 colon,> 100 µM
same,TGI,T-47D breast,> 100 µM
same,TGI,TK-10 renal,> 100 µM
same,TGI,U251 CNS,> 100 µM
same,TGI,UACC-257 melanoma,> 100 µM
same,TGI,UACC-62 melanoma,> 100 µM
same,TGI,UO-31 renal,> 100 µM
